# Data as given in US11129831B2, “Identification of agents displaying functional activation of dopamine D2 and D4 receptors” (Florida A&M University, priority 2017, dated 2021).
# Assays:
# [1] = system: apomorphine (APO)-induced climbing behavior; conditions: for mice exhibiting inhibition of climbing: at higher dosages of each agent
# catalepsy = assay: Catalepsy bar test
# [2] = system: other four DA receptor subtypes; assay: Binding to the other DA receptor subtypes; conditions: result in words
# righting reflex = assay: Righting test (sedation); assay type: in vivo; conditions: rats, following CLP and bar tests
# D2R [3] = target: T1, D2R (Homo sapiens, UniProt P14416); assay: cell-based; assay type: cell-based; conditions: for recruitment of β-arrestin-2 to the D2R: result in words; for Emax: normalized to vehicle (0%) and quinpirole (100%), read-out: β-Arrestin Emax
# T1 sequence (P14416 whole entry): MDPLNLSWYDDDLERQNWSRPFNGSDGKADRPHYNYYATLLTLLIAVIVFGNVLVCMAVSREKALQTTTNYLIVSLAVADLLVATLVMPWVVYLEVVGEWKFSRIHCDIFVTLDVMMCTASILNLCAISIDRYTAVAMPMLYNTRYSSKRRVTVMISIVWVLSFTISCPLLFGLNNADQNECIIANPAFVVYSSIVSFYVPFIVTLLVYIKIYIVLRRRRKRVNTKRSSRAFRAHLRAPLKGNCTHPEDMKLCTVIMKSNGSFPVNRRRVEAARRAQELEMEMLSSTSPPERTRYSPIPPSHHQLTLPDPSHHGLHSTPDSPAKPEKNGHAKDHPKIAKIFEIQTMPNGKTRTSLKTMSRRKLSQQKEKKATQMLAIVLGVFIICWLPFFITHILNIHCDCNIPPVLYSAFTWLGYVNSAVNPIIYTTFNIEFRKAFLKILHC
# [4] = Pharmacokinetics, plasma and brain levels by HPLC-PDA; conditions: for half-life: t1/2, elimination
# D2R [5] = target: T1, D2R; assay type: binding
structure (smiles),measurement,setting,value
O=C(CCCN1CCC(O)(c2ccc(Cl)cc2)CC1)c1ccc(F)cc1 [haloperidol],mice exhibiting inhibition of climbing,[1],~100%
same,antipsychotic activity in animal models of schizophrenia (FIG. 10A),[1]; result in words,dose-dependent antipsychotic activity
same,catalepsy at 6×ED50 (FIG. 10B),"catalepsy; 6×ED50 values, result in words",significant catalepsy
"Br.Br.Br.c1cnc(N2CCN(CCCc3nc4ccccc4s3)CC2)nc1 [Compound 28, 2-(3-(4-(Pyrimidin-2-yl)piperazin-1-yl)propyl)benzo[d]thiazole trihydrobromide]",binding affinity to the other four DA receptor subtypes,[2],little or no binding affinity
Fc1ccc(CCCCN2CCN(c3ccccn3)CC2)cc1 [SYA16263],righting after catalepsy testing,righting reflex,all rats were observed to right themselves
same,recruitment of β-arrestin-2 to the D2R,D2R [3],promotes D2-mediated β-arrestin-2 translocation
same,mice exhibiting inhibition of climbing,[1],~100%
same,mean time on bar,"catalepsy; rats, up to 239 μmole/kg (75 mg/kg), 19×ED50apom, no catalepsy",< 20 s
same,AUC0-t,"[4]; brain, rats, ip 50 mg/kg",86 μg · h/(mL or g)
same,tmax,"[4]; brain, rats, ip 50 mg/kg",10 min
same,AUC0-t,"[4]; plasma, rats, ip 50 mg/kg",5.4 μg · h/(mL or g)
same,Cplasma,"[4]; plasma, rats, ip 50 mg/kg, used for BB",5.23
same,Cmax,"[4]; rat, in vivo, ip, 50 mg/kg",63500 ng/g
same,tmax,"[4]; rat, in vivo, ip, 50 mg/kg",10.2 min
same,Kp at 10 min,"[4]; rat, in vivo, ip, 50 mg/kg, BB=Cbrain/Cplasma, rats, ip 50 mg/kg, at ~equilibrium point",12.1
same,half-life,"[4]; rat, in vivo, ip, 50 mg/kg, brain, rats, ip 50 mg/kg",174 to 186 min
same,half-life,"[4]; rat, in vivo, ip, 50 mg/kg, plasma, rats, ip 50 mg/kg",44.4 to 58.8 min
same,Log BB,"[4]; rats, ip 50 mg/kg",1.08
same,brain concentration at 24-hour point,"[4]; rats, ip 50.0 mg/kg, 24 h",near or below the detection limit
same,plasma concentration at 24-hour point,"[4]; rats, ip 50.0 mg/kg, 24 h",below the detection limit
Fc1ccc(OCCCN2CCN(c3ccccn3)CC2)cc1 [SYA16264],righting after catalepsy testing,righting reflex,All rats righted themselves
same,Emax,D2R [3],75.7%
same,mean time on bar,"catalepsy; male, Sprague-Dawley, rat, in vivo, 60 min",< 20 s
Fc1ccc(CCCCN2CCN(c3ncccn3)CC2)cc1 [SYA16268],Emax,D2R [3],71.9%
Fc1ccc(CCCCN2CCN(c3ccc(Cl)cc3)CC2)cc1 [SYA16267],Ki,D2R [5],284 ± 21 nM
same,Emax,D2R [3],5.1%
same,recruitment of β-arrestin-2 to the D2R,D2R [3],significant loss of the ability
same,EC50,D2R [3]; β-arrestin-2 recruitment to D2R,248 nM
